Consider three compounds from patent US12319750B2, “Hexokinase 2-specific inhibitors for use in acute central nervous system injury” (GUANGZHOU CELLPROTEK PHARMACEUTICAL CO., LTD, priority 2017, dated 2025).

For assay [1], the system named is BV2 microglia cells. The assay is described as follows: Proinflammatory cytokine protein expression under hypoxia. The format is cell-based, mouse. To be noted: 2-DG, BV 2 cells under hypoxia. Here is the method:
b) Protein extraction and proinflammatory cytokine protein expression assay: After incubated in 35 mm culture dishes and placed for 24 hours, the cells were subject to hypoxia treatment for indicated time. The total cellular protein was then extracted to detect protein expression of the proinflammatory cytokines TNF-α, IL-1β and IL-6.

Assay [2] deals with BV2 microglia cells. The experiment in a line: Hypoxia-induced microglial activation (morphological changes) in BV2 cells. It is filed as cell-based, mouse. Here is the method:
a) Cell culture: BV2 cells were grown in DMEM containing 10% fetal bovine serum (FBS), placed in 5% CO2, cultured in a 37° C. constant temperature incubator (relative humidity was 95%), and observed under inverted microscope. Passage was performed approximately 2-3 days, and logarithmic growth phase cells were used for formal experiments. The cells in the hypoxic treatment group were placed in the Coy anoxic chamber with 1% 02, 5% CO2, and 94% N2; other conditions were the same as normal culture conditions.
(§1) b) RNA interference: Cells were seeded in a 35 mm culture dish for 24 hours. Short-interfering RNAs (siRNAs) were transfected with RNAiMAX Reagent. Scrambled RNA was used as a control. In total, 50 nM siRNAs were transfected into the cultures, and after 12 hours, the medium was replaced with fresh medium. Cells were then stimulated with hypoxia for 24 hours to detect the expression level of the indicated proteins.
a) Cell culture: BV2 cells were grown in DMEM containing 10% fetal bovine serum (FBS), placed in 5% CO2, cultured in a 37° C. constant temperature incubator (relative humidity was 95%), and observed under inverted microscope. Passage was performed approximately 2-3 days, and logarithmic growth phase cells were used for formal experiments.

Assay [3] has as its system BV 2 cells. The experiment in a line: qRT-PCR of proinflammatory cytokine mRNA under hypoxia. The format is cell-based, mouse. As to conditions: lonidamine 50 μM, 3-BrPA 10 μM; for 116 expression (mRNA) / Tnfa expression (mRNA): hypoxia. The protocol:
Next, quantitative reverse transcription polymerase chain reaction assays were performed to examine the mRNA levels of several proinflammatory cytokines in the presence or absence of HK2 inhibitors. […] Chromatin immunoprecipitation assays were carried out to examine endogenous binding of acetylated histones to I11b promoter. The binding of AcH3 and AcH4 to the I11b promoter increased during hypoxia, whereas it could be decreased by pretreatment with lonidamine (FIG. 7F).
In general terms: In qPCR the cycle at which signal appears reflects the starting amount.

Assay [4] deals with BV 2 cells. The assay is described as follows: Metabolite profiling: acetyl-coenzyme A accumulation under hypoxia. It is filed as cell-based, mouse. To be noted: lonidamine 50 μM, BrPA 10 μM; hypoxia 6 hours. The protocol: c) Metabolite profiling: BV2 cells were seeded in a 60 mm culture dish and cultured for 24 hours and then cultured in normoxic or hypoxic conditions for 6 hours. Metabolites were extracted using 1.5 mL of ice-cold 80% methanol. After incubation at −80° C. for 30 minutes, cells were scrapped and centrifuged at 14,000 g for 15 min at 4° C. The upper methanol/water phase were transferred into new tubes and incubated at −80° C. for another 30 minutes. The upper phases were centrifuged and dried under nitrogen gas and dried samples were stored at −80° C. prior to LC-MS analysis.

Assay [5] concerns BV2 microglia cells. The experiment in a line: CD 11b expression in hypoxia-stimulated BV2 cells. The format is cell-based, mouse. As to conditions: lonidamine 50 μM, DMSO as solvent. Here is the method: c) CD 11b expression detected by Immunofluorescence: BV2 cells were seeded in a laser confocal-specific culture plate, and treated with hypoxia for 24 hours, fixed in 4% paraformaldehyde at room temperature for 20 minutes, and then washed three times with PBST for 5 minutes each time. After washing, CD 11b antibody diluted with DAKO antibody dilution was added and incubated overnight at 4° C. The next day, the samples were incubated with indicated fluorescently labeled secondary antibody at 37° C. for 1 hour.
as §1
b) CD 11b expression detected by Immunofluorescence: BV2 cells were seeded in a laser confocal-specific culture plate, and treated with hypoxia for 24 hours, fixed in 4% paraformaldehyde at room temperature for 20 minutes, and then washed three times with PBST for 5 minutes each time. After washing, CD 11b antibody diluted with DAKO antibody dilution was added and incubated overnight at 4° C. […]

The test system of assay [6] is primary microglia (pMG). The assay is described as follows: CD 11b expression in hypoxia-stimulated primary microglia. The format is cell-based, mouse. To be noted: lonidamine 50 μM, DMSO as solvent. The protocol:
For the isolation and culture of primary microglia, cells were isolated from newborn C57BL/6J mice. Briefly, cerebral cortices devoid of meninges and blood vessels were dissociated from P0-2 mice and digested by 0.125% trypsin at 37° C. for 15 minutes. The digestion was terminated by addition of DMEM containing 10% FBS and isolated single cells were seeded in culture dishes. After the mixed cultures became confluent, microglia were separated from other cell types by slight shaking and purification was identified by the microglial-specific marker CD 11b. b) CD 11b expression detected by Immunofluorescence: BV2 cells were seeded in a laser confocal-specific culture plate, and treated with hypoxia for 24 hours, fixed in 4% paraformaldehyde at room temperature for 20 minutes, and then washed three times with PBST for 5 minutes each time. After washing, CD 11b antibody diluted with DAKO antibody dilution was added and incubated overnight at 4° C. The next day, the samples were incubated with indicated fluorescently labeled secondary antibody at 37° C. for 1 hour.

Assay [7] has as its system middle cerebral artery occlusion (MCAo) rats. The assay is described as follows: Rat MCAo model, infarct volume by TTC staining. To be noted: 10 mg/kg two hours after operation; measured 24 hours after reperfusion. It is filed as in vivo.
Assay [8] relates to primary microglia (pMG). The assay is described as follows: Hypoxia-induced microglial activation (morphological changes) in primary microglia. The format is cell-based, mouse. To be noted: lonidamine 50 μM. The protocol:
For the isolation and culture of primary microglia, cells were isolated from newborn C57BL/6J mice. Briefly, cerebral cortices devoid of meninges and blood vessels were dissociated from P0-2 mice and digested by 0.125% trypsin at 37° C. for 15 minutes. The digestion was terminated by addition of DMEM containing 10% FBS and isolated single cells were seeded in culture dishes. After the mixed cultures became confluent, microglia were separated from other cell types by slight shaking and purification was identified by the microglial-specific marker CD 11b.

A further assay relates to I11b promoter. The experiment in a line: Chromatin immunoprecipitation (ChIP): acetylated histones at I11b promoter. To be noted: pretreatment 1 hour prior to 6 hours hypoxic exposure. It is filed as cell-based, mouse. The protocol: d) Chromatin immunoprecipitation (ChIP) assay: BV 2 cells were treated with dimethylsulfoxide or lonidamine for 1 hour prior to 6 hours hypoxic exposure. Then, cells were cross-linked with a 1% formaldehyde solution (Sigma, F8775) for 10 minutes at 37° C. Cell lysates were sonicated to generate 100-1000 bp DNA fragments. Samples were diluted, and 10% of the total amount was retained for input. The remaining portions of each sample were pre-cleared, and anti-H3 or anti-H4 antibodies were added; a normal rabbit IgG antibody was simultaneously used as the negative control. The next day, protein G agarose was added and samples were washed after 2 hours of incubation. Cross-links were then reversed by incubation at 65° C. for 4 hours in 0.2 M NaCl. DNAs were extracted from the input and IP samples, and qPCR assays were performed. The […] promoter primer sequences were as follows: [NT] (forward) (SEQ ID NO. 19) and [NT] (reverse) (SEQ ID NO. 20).

`O=CC[C@@H](O)[C@H](O)[C@H](O)CO` [2-deoxyglucose, 2-deoxy-D-glucose]: in the assay on BV2 microglia cells [1], the “production of proinflammation cytokines” value is “significantly impaired”. Further, in the assay with BV2 microglia cells [2] (500 μM 2-DG, hypoxia 1% oxygen), the “percentage of BV 2 cells with activated morphological changes” value is “significantly decreased”.
Take `O=C(O)C(=O)CBr` [3-Br-pyruvate, 3-bromopyruvate]: in the assay on BV 2 cells [3], the “hypoxia-induced I11b expression at the mRNA level” value is listed as “dramatically inhibited”, the “116 expression (mRNA)” value is given as “no effect” and the “Tnfa expression (mRNA)” value was “no effect”. Besides, the “hypoxia-induced accumulation of acetyl-coenzyme A” value with BV 2 cells [4] was “remarkably impaired”.
`O=C(O)c1nn(Cc2ccc(Cl)cc2Cl)c2ccccc12` [Lonidamine]: in the assay with BV 2 cells [3], the “hypoxia-induced I11b expression at the mRNA level” value is listed as “dramatically inhibited”, the “116 expression (mRNA)” value is listed as “no effect” and the “Tnfa expression (mRNA)” value was “no effect”. In the assay on BV2 microglia cells [5], the “CD 11b expression, BV 2 cells (immunofluorescence)” value is reported as “reduction”. The “CD 11b expression, pMG cells (immunofluorescence)” value in the assay on primary microglia (pMG) [6] is reported as “reduction”. Further, the infarct size entry in assay [7] is “significantly reduced”. Further, in the assay on BV 2 cells [4], the “hypoxia-induced accumulation of acetyl-coenzyme A” value is “remarkably impaired”. Further, the “activated state of pMG cultures during hypoxia” value in the assay with primary microglia (pMG) [8] was “markedly inhibited”. The “activated state of BV 2 cultures during hypoxia” value with BV2 microglia cells [2] (lonidamine 50 μM) was “markedly inhibited”. Further, in the assay on I11b promoter, the “binding of AcH3 to the I11b promoter during hypoxia” value is “decreased” and the “binding of AcH4 to the I11b promoter during hypoxia” value is on record as “decreased”.
